From patent publication US9321728B2, “Beta-alanine derivatives, pharmaceutically acceptable salts thereof, and pharmaceutical composition comprising same as active ingredient” (KOREA RESEARCH INSTITUTE OF CHEMICAL TECHNOLOGY, priority 2012, dated 2016)

Molecular target: human DGAT1 (Homo sapiens (Human), UniProt O75907)
Assay: Human DGAT1 enzyme inhibition test (phospholipid FlashPlate, [14C]decanoyl-CoA)
Format: biochemical
Conditions: for IC50: lysate of Hep3B cells over-expressing human DGAT1 (5 μg/well), didecanoyl glycerol and [14C]decanoyl-CoA substrates; for in vitro inhibition activity with respect to DGAT1: verbal summary of Table 1
Method: The cells were treated with 200 μg/ml G-418(Sigma) once every three days for 4 weeks to over-express the human DGAT1, thereby obtaining a stabilized cell line. The over-expressed cells were put into a homogenization buffer [250 mM sucrose, 10 mM Tris-HCl (pH 7.4), 1 mM EDTA] and lysed by a homogenization apparatus. Then, centrifugation was performed with 600×g for 15 minutes to remove cell residue, and the obtained cells were used for an enzyme inhibition test. Human DGAT-1 and mouse DGAT activity was determined as follows: Assay buffer [20 mM HEPES (pH 7.4), 100 mM MgCl2, 0.04% BSA] containing 500 μM of enzyme substrate (didecanoyl glycerol) and 7.5 μM radiolabeled acyl-CoA substrate ([^14C]decanoyl-CoA) was added to each well of a phospholipid FlashPlate (PerkinElmer Life Sciences). A small aliquot of lysate (5 μg/well) or mouse liver microsome (0.1 mg/well) was added to start the reaction, which was allowed to proceed in a 20° C. bath for 1 hour. and maintained overnight at room temperature. Next day, measurement was performed by Wallac 1450 Microbeta Trilux Liquid Scintillation Counter and Luminometer (PerkinElmer Life Science). […] A calculation method of inhibition degree (%) is as follows.

Chain of human DGAT1 (O75907 whole entry): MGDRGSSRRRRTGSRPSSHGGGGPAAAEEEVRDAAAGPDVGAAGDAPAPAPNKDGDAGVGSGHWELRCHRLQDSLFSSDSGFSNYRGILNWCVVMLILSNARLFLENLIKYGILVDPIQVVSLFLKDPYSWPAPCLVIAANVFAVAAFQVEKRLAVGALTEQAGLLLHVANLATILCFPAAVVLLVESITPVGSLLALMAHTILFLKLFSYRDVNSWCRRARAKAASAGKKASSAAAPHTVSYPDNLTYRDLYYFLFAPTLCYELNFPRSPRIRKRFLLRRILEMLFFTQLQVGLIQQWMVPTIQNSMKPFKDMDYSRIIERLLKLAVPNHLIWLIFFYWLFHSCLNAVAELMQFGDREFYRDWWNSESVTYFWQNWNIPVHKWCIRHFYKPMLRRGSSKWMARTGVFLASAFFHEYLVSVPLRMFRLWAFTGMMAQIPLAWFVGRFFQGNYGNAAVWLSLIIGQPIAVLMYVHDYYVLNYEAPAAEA

Row | IC50 [nM] | in vitro inhibition activity with respect to DGAT1 | Structure (SMILES)
1 | < 100 | – | Cc1ccc(-n2cc(C(=O)NCCC(=O)Nc3ccc([C@H]4CC[C@H](CC(=O)O)CC4)cc3)c(C(F)(F)F)n2)cc1 [Compound 47, trans-[4-(4-{3-[(1-p-tolyl-3-trifluoromethyl-1H-pyrazole-4-carbonyl)amino]propionylamino}phenyl)cyclohexyl]acetic acid]
2 | < 100 | – | O=C(O)C[C@H]1CC[C@H](c2ccc(NC(=O)CCNC(=O)c3nc(-c4c(F)cccc4Cl)oc3C(F)(F)F)cc2)CC1 [Compound 73, trans-{4-[4-(3-{[2-(2-chloro-6-fluorophenyl)-5-trifluoromethyloxazole-4-carbonyl]amino}propionylamino)phenyl]cyclohexyl}acetic acid]
3 | < 50 | good to excellent | CCc1ccc(-c2ccc(C(=O)NCCC(=O)Nc3ccc([C@H]4CC[C@H](CC(=O)O)CC4)cc3)cc2)cc1 [Compound 93, trans-[4-(4-{3-[(4′-ethylbiphenyl-4-carbonyl)amino]propionylamino}phenyl)cyclohexyl]acetic acid]
4 | < 100 | – | Cc1oc(-c2ccccc2)nc1C(=O)NCCC(=O)Nc1ccc([C@H]2CC[C@H](CC(=O)O)CC2)cc1 [Compound 31, trans-[4-(4-{3-[(5-methyl-2-phenyloxazole-4-carbonyl)amino]propionylamino}phenyl)cyclohexyl]acetic acid]
5 | < 50 | good to excellent | O=C(O)C[C@H]1CC[C@H](c2ccc(NC(=O)CCNC(=O)c3nc(-c4ccccc4Cl)oc3Cl)cc2)CC1 [Compound 95, trans-{4-[4-(3-{[5-chloro-2-(2-chlorophenyl)oxazole-4-carbonyl]amino}propionylamino)phenyl]cyclohexyl}acetic acid]
6 | < 100 | – | Cc1ccccc1-c1nc(C(=O)NCCC(=O)Nc2ccc([C@H]3CC[C@H](CC(=O)O)CC3)cc2)c(C(F)(F)F)o1 [Compound 21, trans-[4-(4-{3-[(2-o-tolyl-5-trifluoromethyloxazole-4-carbonyl)amino]propionylamino}phenyl)cyclohexyl]acetic acid]
7 | < 50 | good to excellent | O=C(O)C[C@H]1CC[C@H](c2ccc(NC(=O)CCNC(=O)c3nc(-c4ccc(Cl)cc4Cl)oc3C(F)(F)F)cc2)CC1 [Compound 64, trans-{4-[4-(3-{[2-(2,4-dichlorophenyl)-5-trifluoromethyloxazole-4-carbonyl]amino}propionylamino)phenyl]cyclohexyl}acetic acid]
8 | < 50 | good to excellent | O=C(O)C[C@H]1CC[C@H](c2ccc(NC(=O)CCNC(=O)c3nc(-c4ccccc4F)oc3C(F)(F)F)cc2)CC1 [Compound 60, trans-{4-[4-(3-{[2-(2-Fluorophenyl)-5-trifluoromethyloxazole-4-carbonyl]amino}propionylamino)phenyl]cyclohexyl}acetic acid]
9 | < 50 | good to excellent | O=C(O)C[C@H]1CC[C@H](c2ccc(NC(=O)CCNC(=O)c3nc(-c4ccccc4Br)oc3C(F)(F)F)cc2)CC1 [Compound 65, trans-{4-[4-(3-{[2-(2-Bromophenyl)-5-trifluoromethyloxazole-4-carbonyl]amino}propionylamino)phenyl]cyclohexyl}acetic acid]
10 | < 50 | good to excellent | O=C(O)C[C@H]1CC[C@H](c2ccc(NC(=O)CCNC(=O)c3nc(-c4ccccc4)oc3C(F)(F)F)cc2)CC1 [Compound 6, trans-[4-(4-{3-[(2-Phenyl-5-trifluoromethyloxazole-4-carbonyl)amino]propionylamino}phenyl)cyclohexyl]acetic acid]
11 | < 50 | good to excellent | O=C(O)C[C@H]1CC[C@H](c2ccc(NC(=O)CCNC(=O)c3ccc(-c4ccccc4)c(Cl)c3)cc2)CC1 [Compound 94, trans-[4-(4-{3-[(2-chlorobiphenyl-4-carbonyl)amino]propionylamino}phenyl)cyclohexyl]acetic acid]
12 | < 100 | – | O=C(O)C[C@H]1CC[C@H](c2ccc(NC(=O)CCNC(=O)c3cn(-c4ccc(Cl)cc4)nc3C(F)(F)F)cc2)CC1 [Compound 49, trans-{4-[4-(3-{[1-(4-chlorophenyl)-3-trifluoromethyl-1H-pyrazole-4-carbonyl]amino}propionylamino)phenyl]cyclohexyl}acetic acid]
13 | < 100 | – | O=C(O)C[C@H]1CC[C@H](c2ccc(NC(=O)CCNC(=O)c3cn(-c4ccccc4Cl)nc3C(F)(F)F)cc2)CC1 [Compound 51, trans-{4-[4-(3-{[1-(2-Chlorophenyl)-3-trifluoromethyl-1H-pyrazole-4-carbonyl]amino}propionylamino)phenyl]cyclohexyl}acetic acid]
14 | < 100 | – | Cc1cccc(C)c1-c1ccc(C(=O)NCCC(=O)Nc2ccc([C@H]3CC[C@H](CC(=O)O)CC3)cc2)cc1 [Compound 75, trans-[4-(4-(3-(2′,6′-dimethylbiphenyl-4-carbonylamino)propionylamino)phenyl)cyclohexyl]acetic acid]
15 | < 100 | – | O=C(O)C[C@H]1CC[C@H](c2ccc(NC(=O)CCNC(=O)c3nc(-c4ccccc4)oc3Cl)cc2)CC1 [Compound 87, trans-[4-(4-{3-[(5-chloro-2-phenyloxazole-4-carbonyl)amino]propionylamino}phenyl)cyclohexyl]acetic acid]
16 | < 100 | – | O=C(O)C[C@H]1CC[C@H](c2ccc(NC(=O)CCNC(=O)c3ccc(-c4ccccc4Cl)cc3)cc2)CC1 [Compound 86, trans-[4-(4-{3-[(2′-chlorobiphenyl-4-carbonyl)amino]propionylamino}phenyl)cyclohexyl]acetic acid]
17 | < 50 | good to excellent | O=C(O)C[C@H]1CC[C@H](c2ccc(NC(=O)CCNC(=O)c3nc(-c4ccccc4Cl)oc3C(F)(F)F)cc2)CC1 [Compound 11, trans-{4-[4-(3-{[2-(2-chlorophenyl)-5-trifluoromethyloxazole-4-carbonyl]amino}propionylamino)phenyl]cyclohexyl}acetic acid]
18 | < 50 | – | O=C(O)C[C@H]1CC[C@H](c2ccc(NC(=O)CCNC(=O)c3nc(-c4c(Cl)cccc4Cl)oc3C(F)(F)F)cc2)CC1 [Compound 69, sodium; trans-{4-[4-(3-{[2-(2,6-dichlorophenyl)-5-trifluoromethyloxazole-4-carbonyl]amino}propionylamino)phenyl]cyclohexyl}acetate]
19 | < 50 | good to excellent | O=C(O)C[C@H]1CC[C@H](c2ccc(NC(=O)CCNC(=O)c3nc(-c4c(Cl)cc(F)cc4Cl)oc3C(F)(F)F)cc2)CC1 [Compound 105]
20 | < 50 | – | O=C(O)C[C@H]1CC[C@H](c2ccc(NC(=O)CCNC(=O)c3nc(-c4ccccc4Cl)oc3C(F)(F)F)cc2)CC1 [Compound 79, sodium; trans-{4-[4-(3-{[2-(2-chlorophenyl)-5-trifluoromethyloxazole-4-carbonyl]amino}propionylamino)phenyl]cyclohexyl}acetate]
21 | < 500 | – | Cc1nc(-c2ccccc2)sc1C(=O)NCCC(=O)Nc1ccc([C@H]2CC[C@H](CC(=O)O)CC2)cc1 [Compound 33, trans-[4-(4-{3-[(4-methyl-2-phenylthiazole-5-carbonyl)amino]propionylamino}phenyl)cyclohexyl]acetic acid]
22 | < 100 | – | O=C(O)C[C@H]1CC[C@H](c2ccc(NC(=O)CCNC(=O)c3sc(-c4ccccc4)nc3C(F)(F)F)cc2)CC1 [Compound 37, trans-[4-(4-{3-[(2-phenyl-4-trifluoromethylthiazole-5-carbonyl)amino]propionylamino}phenyl)cyclohexyl]acetic acid]
23 | < 100 | – | Cc1ccc(-c2nc(C(=O)NCCC(=O)Nc3ccc([C@H]4CC[C@H](CC(=O)O)CC4)cc3)c(C(F)(F)F)o2)cc1 [Compound 19, trans-[4-(4-{3-[(2-p-tolyl-5-trifluoromethyloxazole-4-carbonyl)amino]propionylamino}phenyl)cyclohexyl]acetic acid]
24 | < 500 | – | O=C(O)C[C@H]1CC[C@H](c2ccc(NC(=O)CCNC(=O)c3nc(-c4ccccc4)oc3C(F)(F)F)cc2)CC1 [Compound 22, sodium; trans-[4-(4-{3-[(2-phenyl-5-trifluoromethyloxazole-4-carbonyl)amino]propionylamino}phenyl)cyclohexyl]acetate]
25 | < 500 | – | O=C(O)C[C@H]1CC[C@H](c2ccc(NC(=O)CCNC(=O)c3ccc(OCC4CC4)cc3)cc2)CC1 [Compound 58, trans-(4-{4-[3-(4-cyclopropylmethoxybenzoylamino)propionylamino]phenyl}cyclohexyl)acetic acid]
26 | < 50 | good to excellent | NC(=O)C[C@H]1CC[C@H](c2ccc(NC(=O)CCNC(=O)c3nc(-c4ccccc4)oc3C(F)(F)F)cc2)CC1 [Compound 41, trans-2-phenyl-5-trifluoromethyloxazole-4-carboxylic acid{2-[4-(4-carbamoylmethylcyclohexyl)phenylcarbamoyl]ethyl}amide]
27 | < 100 | – | O=C(O)C[C@H]1CC[C@H](c2ccc(NC(=O)CCNC(=O)c3cn(-c4ccccc4)nc3C(F)(F)F)cc2)CC1 [Compound 7, trans-[4-(4-{3-[(1-phenyl-3-trifluoromethyl-1H-pyrazole-4-carbonyl)amino]propionylamino}phenyl)cyclohexyl]acetic acid]
